According to the supplement of paper PMC10307832:

Experiments:
Test in all cases: relative viability (nuclei count vs DMSO), 5 days (fraction); higher = more cells survive
[1] = compound: C1/C(=C\C2=CC=CS2)/C(=O)/C(=C/C3=CC=CS3)/C1 + CS(=O)(=O)N1CCN(Cc2cc3nc(-c4cccc5[nH]ncc45)nc(N4CCOCC4)c3s2)CC1 [Pictilisib] (partner 1 µM)
Method in brief: (§1)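 Relative viability equals treated-well nuclei counts divided by vehicle-well nuclei counts. Counts came from 4× images of lung cancer cell lines grown in 1536-well plates for 5 days after pin-tool dosing on the day after seeding. Dosing used one drug alone or a fixed anchor-drug dose plus five library-drug doses (not always all listed) in √10 steps, and values are medians of duplicate plates.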

[2] = compound: C[C@]12O[C@H](C[C@]1(O)CO)n1c3ccccc3c3c4c(c5c6ccccc6n2c5c31)CNC4=O [Lestaurtinib] + CC(=O)Nc1cccc(-n2c(=O)n(C3CC3)c(=O)c3c(Nc4ccc(I)cc4F)n(C)c(=O)c(C)c32)c1 [Trametinib] (partner 0.02 µM)
Method in brief: as §1

[3] = compound: C[C@]12O[C@H](C[C@]1(O)CO)n1c3ccccc3c3c4c(c5c6ccccc6n2c5c31)CNC4=O [Lestaurtinib] + CC(=O)c1c(C)c2cnc(Nc3ccc(N4CCNCC4)cn3)nc2n(C2CCCC2)c1=O [Palbociclib] (partner 0.5 µM)
Method in brief: as §1

Lestaurtinib + AZD7762 = compound: C[C@]12O[C@H](C[C@]1(O)CO)n1c3ccccc3c3c4c(c5c6ccccc6n2c5c31)CNC4=O [Lestaurtinib] + NC(=O)Nc1cc(-c2cccc(F)c2)sc1C(=O)N[C@H]1CCCNC1 [AZD7762] (partner 0.2 µM)
Method in brief: as §1

| Cell Line | relative viability ([1]; first compound 0.2 µM) | relative viability ([1]; first compound 0.6325 µM) | relative viability ([1]; first compound 2 µM) | relative viability ([1]; first compound 6.325 µM) | relative viability ([1]; first compound 20 µM) | relative viability ([2]; first compound 0.005 µM) | relative viability ([2]; first compound 0.01581 µM) | relative viability ([2]; first compound 0.05 µM) | relative viability ([2]; first compound 0.1581 µM) | relative viability ([2]; first compound 0.5 µM) | relative viability ([3]; first compound 0.005 µM) | relative viability ([3]; first compound 0.01581 µM) | relative viability ([3]; first compound 0.05 µM) | relative viability ([3]; first compound 0.1581 µM) | relative viability ([3]; first compound 0.5 µM) | relative viability (Lestaurtinib + AZD7762; first compound 0.005 µM) | relative viability (Lestaurtinib + AZD7762; first compound 0.01581 µM) | relative viability (Lestaurtinib + AZD7762; first compound 0.05 µM) | relative viability (Lestaurtinib + AZD7762; first compound 0.1581 µM) | relative viability (Lestaurtinib + AZD7762; first compound 0.5 µM) |
| --- | --- | --- | --- | --- | --- | --- | --- | --- | --- | --- | --- | --- | --- | --- | --- | --- | --- | --- | --- | --- |
| NCI-H1915 | 0.953 | 0.896 | 0.981 | 0.839 | 0.788 | 0.318 | 0.254 | 0.253 | 0.12 | 0.0799 | 0.564 | 0.719 | 0.481 | 0.323 | 0.231 | 0.751 | 0.745 | 0.655 | 0.52 | 0.24 |
| NCI-H1944 | 0.35 | 0.333 | 0.357 | 0.162 | 0.341 | 0.408 | 0.464 | 0.386 | 0.345 | 0.292 | 0.334 | 0.332 | 0.286 | 0.248 | 0.292 | 0.609 | 0.514 | 0.623 | 0.487 | 0.228 |
| NCI-H1975 | 0.314 | 0.265 | 0.328 | 0.26 | 0.265 | 0.344 | 0.33 | 0.348 | 0.262 | 0.209 | 0.617 | 0.632 | 0.406 | 0.347 | 0.25 | 0.806 | 0.86 | 0.693 | 0.745 | 0.511 |
| NCI-H1993 | 0.877 | 0.793 | 0.851 | 0.684 | 0.79 | 0.553 | 0.505 | 0.483 | 0.498 | 0.418 | 0.689 | 0.27 | 0.717 | 0.569 | 0.411 | 0.581 | 0.553 | 0.619 | 0.632 | 0.47 |
| NCI-H2085 | 0.449 | 0.487 | 0.534 | 0.405 | 0.432 | 0.476 | 0.514 | 0.558 | 0.652 | 0.46 | 0.445 | 0.489 | 0.471 | 0.463 | 0.475 | 0.917 | 0.938 | 0.941 | 0.98 | 0.827 |
| NCI-H2087 | 0.78 | 0.959 | 0.986 | 0.552 | 0.822 | 0.201 | 0.264 | 0.203 | 0.23 | 0.187 | 0.167 | 0.252 | 0.167 | 0.17 | 0.207 | 1.27 | 1.2 | 1.06 | 0.761 | 0.302 |
| NCI-H2126 | 0.511 | 0.477 | 0.505 | 0.485 | 0.488 | 0.625 | 0.6 | 0.624 | 0.52 | 0.578 | 0.339 | 0.372 | 0.388 | 0.357 | 0.339 | 1.04 | 1.01 | 0.877 | 0.988 | 0.813 |
| NCI-H2170 | 0.334 | 0.341 | 0.31 | 0.278 | 0.313 | 0.896 | 0.864 | 0.609 | 0.764 | 0.31 | 0.325 | 0.379 | 0.275 | 0.394 | 0.218 | 0.847 | 0.784 | 0.655 | 0.83 | 0.241 |
